Data reported in patent publication US9701667B2, “Coumarin-based fluorogenic agents and uses thereof for specific protein labelling” (UNIVERSITY OF OTTAWA, priority 2014, dated 2017).
Entries after “also recorded” stand apart in the source; their conditions may differ.

Columns and labels:
histone H2B-dC10α [1] = assay: Intracellular labelling of histone H2B-dC10α in HeLa cells; assay type: cell-based, human; details: 10 μM YC20, 10 minutes
Protocol: HeLa cells were transfected with plasmid DNA encoding histone H2B-dC10α as described below and labelled with 10 μM YC20 for 10 minutes.
Transfection and labelling were performed as follows: HeLa cells were propagated for 2-3 weeks until the cells were stable and healthy for the transfection and labelling experiments. Cells were plated in 35 mm culture dishes (approx. 1.3×10^5 cells/plate in 2 mL of MEM or DMEM media) and incubated at 37° C. (5% CO2) for 12-16 h, after which they were transfected with the plasmid DNA encoding for the expression of histone H2B C-terminally tagged with dC10α, using 3-fold lipofectamine […] (H2B-dC10α and 6 μg of lipofectamine). For the transfections the media was changed from MEM/DMEM to OPTI-MEM and the transfection time was 45 min. The media was then changed back to MEM/DMEM and the cells were allowed to express protein for 48 h (37° C. and 5% CO2), after which the cells were treated with the corresponding fluorogen. For FlARe labelling, cells were treated with 10 μM of YC20 in 2 mL OPTI-MEM (containing 0.02% F127 and 0.2% DMSO) and incubated at 37° C. and 5% CO2 for 10 minutes.

HEK293T cells = assay: MTT cytotoxicity assay; assay type: cell-based, human; details: 20 h incubation
Protocol: 3-(4,5-Dimethylthiazol-2-yl)-2,5-diphenyl tetrazolium bromide (MTT) is a yellow tetrazolium salt and can be reduced to formazan crystals, which are insoluble in aqueous solutions, by active mitochondria in living cells. The resulting intracellular purple formazan can be dissolved in Triton X100, and therefore quantified by measuring absorption of the solution.
Cells were seeded in a 96-well plate and incubated with 100 μL of culture medium with different amounts of the fluorogen YCx for 16 h. No fluorogen was added to the positive control and no cells were plated in the negative control. Portions of 25 μL of MTT solution (5 mg in 1 mL of Hanks' balanced salt solution) were added to the wells and the cells were further incubated at 37° C. for 4 h. Solubilization solutions (100 μL) were then added and incubated in 96-well plates at room temperature in the dark overnight. The absorption of each well was measured using a plate reader at a wavelength of 570 nm with 690 nm as a reference. Cell viability was calculated according to the following equation: Cell viability=(Awith fluorogen−Anegative control)/(Apositive control−Anegative control).

MBP-dC10α [2] = assay: Time-dependent fluorescence increase on reaction with test protein; assay type: biochemical; details: MBP-dC10 versus GSH
Protocol: (§1) Reactivity was tested through the time-dependent fluorescence increase at 37° C. using Synergy H4 Hybrid Multi-Mode Microplate Reader with excitation and emission monochromators set to 9 nm bandpass. All reactions were prepared in 50 mM HEPES buffer (pH 7.4) with 5% DMSO. Solutions of MBP-dC10α or GSH were prepared in 96-well plates and labelling reagent (YCx) in DMSO was added immediately before recording. The final concentration of labelling reagent was 25 μM, the final concentration of MBP-dC10α was 25 μM and the final concentration of GSH was 50 μM or 1 mM in 50 mM HEPES buffer (pH 7.4) with 5% DMSO. Samples were excited at 440 nm and fluorescence intensity was followed at 485 nm as a function of time.

MBP-dC10α [3] = assay: Fluorescence properties and fluorescence enhancement (FE) before/after labelling of model target protein; assay type: biochemical
Protocol: For experiments described herein, maltose-binding protein (MBP) was chosen as a highly-soluble test protein and the dC10α tag was fused to its C-terminus (MBP-dC10α) as described previously (Guy, J. et al., Mol. Biosyst. 2010, 6, 976-987).
Emission spectra and fluorescence intensity measurements were recorded at 37° C. with a Synergy H4 Hybrid Multi-Mode Microplate Reader with excitation and emission monochromators set at 9 nm bandpass. The mixture of 100 μM solution of fluorogen (YCx) and 100 μM MBP-dC10 in 50 mM HEPES buffer (pH 7.4) with 5% DMSO was incubated at 37° C. in the dark for 12 hours, after which the fluorescence emission spectrum of a dilution (25 μM final) in 50 mM HEPES buffer with 5% DMSO was recorded. The emission spectra of the corresponding labelling reagent in same solution without MBP-dC10α were also recorded. The ratio of fluorescence intensity at maximum emission gave the fluorescence enhancement (FE) ratio.

[4] = Time-dependent fluorescence increase on reaction with GSH; details: 25 μM fluorogen, 1 mM GSH
Protocol: as §1

dC10α-actin = biological target: T1, dC10α-actin (Homo sapiens, UniProt P60709); assay: No-wash intracellular labelling of dC10α-actin in HEK 293T cells; assay type: cell-based; details: 10 μM YC20, 45 min
T1 construct: expressed in transfected cells; host or cells: HEK 293T
Protocol: (§2) The no-wash fluorogenic labelling reagent YC20 was used to label cellular proteins localized in different parts of living HEK 293T cells. Histone-H2B, localized in the nuclei, and actin, localized as filaments in the cytosol, were chosen as the test proteins. […] HEK293T cells were transfected to express histone H2B-dC10α or dC10α-actin and then labeled with YC20 for 45 min and directly imaged by fluorescent microscopy without any washing steps (FIG. 13; see, also, Chen, Y. et al., Angew. Chem. Int. Ed. Engl., 2014, 53, 13785-13788, the entire contents of which are hereby incorporated by reference).
(§3) Transfection and labelling were performed as follows: HEK 293T cells were plated into 60-mm dishes and grown in MEM supplemented with 10% FBS, 100 units/mL of penicillin and 100 μg/mL of streptomycin for 16 h before transfection. Cells were transiently transfected with plasmid DNA encoding for dC10α-actin or histone H2B-dC10α or with pcDNA3.1 (mock) using lipofectamine 2000 following manufacturer's instructions. Twenty-four or forty-eight hours after transfection, the cells were incubated with 10 μM YC20 (in Opti-MEM with 0.2% DMSO) for 45 min at 37° C. Cells were observed and imaged on a Nikon confocal microscope with a 25× objective. Images were taken and analyzed with NIS-Elements software.

histone H2B-dC10α [5] = assay: No-wash intracellular labelling of histone H2B-dC10α in HEK 293T cells; assay type: cell-based, human; details: 10 μM YC20, 45 min
Protocol: as §2, §3

CCN(CC)c1ccc2cc(C(=O)Nc3cc(N4C(=O)C=C(OC)C4=O)cc(N4C(=O)C=C(OC)C4=O)c3)c(=O)oc2c1 [YC20, N-(3,5-bis(3-methoxy-2,5-dioxo-2,5-dihydro-1H-pyrrol-1-yl)phenyl)-7-(diethylamino)-2-oxo-2H-chromene-3-carboxamide]
labelling of histone H2B-dC10α (cyan channel) (histone H2B-dC10α [1]): nuclei were strongly fluorescently labeled
cytotoxicity (cell viability, MTT) (HEK293T cells): neither showed any cytotoxicity up to 100 μM
selectivity of labelling target protein over GSH (MBP-dC10α [2]): most selective labelling reagent
fluorescence intensity change (fluorescence enhancement) (MBP-dC10α [3]; after labelling with MBP-dC10, λex = 440 nm): 29 fold
fluorescence after the labelling reaction (MBP-dC10α [3]; after reaction with MBP-dC10α): strong fluorescence
background (intrinsic) fluorescence before labelling / quenching (MBP-dC10α [3]; fluorogen without target protein): negligible background fluorescence
reaction with high concentration (large excess) of GSH [4]: extremely slow; also recorded: did not give any fluorescence signal
fluorescence in pcDNA transfected (mock) cells (dC10α-actin; HEK 293T mock cells): negligible fluorescence
labelling of dC10α-actin (cyan channel) (dC10α-actin; HEK 293T): filament structures in the cytosol were clearly visible
labelling of histone H2B-dC10α (cyan channel) (histone H2B-dC10α [5]): only the nuclei were fluorescently labeled
